From patent US20090274739A1, “METHODS AND COMPOSITIONS FOR TREATING NEOINTIMAL HYPERPLASIA” (THE TRUSTEES OF COLUMBIA UNIVERSITY IN THE CITY OF NEW YORK, priority 2006, published 2009) come the findings set out here.

The subject of the assay is primary murine aortic vascular smooth muscle cells (VSMC). As to the kind of experiment: VSMC proliferation assay (Coulter counter / MTS-based). The assay is classed as cell-based, mouse. As for the experimental part: The methods used in the above experiments were as follows: Cell Culture and VSMC Proliferation Assays. Primary VSMC were isolated from aortic explants of wildtype, ob/ob, or db/db mice in the method of Roque et al. 30. VSMC were routinely cultured in Dulbecco's Modified Eagle's Medium (DMEM) containing either 4500 or 1250 mg/L glucose supplemented with 20% FBS at 37° C. in a 5% CO2 incubator. […] Cells were plated at 200,000 cells/ well of a 6 well dish and subsequently serum starved for 72 hr in DMEM media supplemented with 0.1 % FBS. Leptin dissolved in PBS was added directly to serum-free media at concentrations of 1, 10, or 100 ng/ml with […] LY294002 or U0126, and cells were grown for another 72 hr before harvesting. VSMC proliferation was measured by counting samples using a Coulter counter or using the Cell Titre 96 Aqueous One Solution Cell Proliferation Assay kit (Promega). Cell viability was assessed by Trypan Blue staining.
Proliferation of VSMCs: VSMC proliferation was measured by counting triplicate samples using a Coulter counter or using the CellTitier 96 Aqueous One Solution Cell Proliferation Assay (Promega, Madison, Wis.) kit per manufacturer's instructions. Cell viability was assessed via staining with Trypan Blue.
Murine VSMCs (2×10^4 cells/well) were incubated in a 6-well tissue culture plate for 72 hours in DMEM containing 0.1% FBS with or without insulin (10 or 100 nmol/L) and with 0, 1, 10, or 100 nmol/L rapamycin. Triplicate samples were counted using a Coulter counter and were normalized as percentage of the control group. Cell viability was checked via Trypan blue staining.
Murine VSMCs, seeded 2×10^4 cells/well in a 6-well plate, were starved for 72 hrs in DMEM with 0.1% FBS. Rapamycin, leptin, or insulin in different concentrations indicated in the figure were incubated with VSMCs in DMEM with 0.1% of FBS for 72 hrs. Triplicate samples were counted via a Coulter counter. Cell viability was checked via Trypan blue staining. […] In panel C, VSMCs were exposed to U0126, a specific MEK1/2 inhibitor, or LY294002, a specific PI3K inhibitor.
Primary VSMC were isolated from aortic explants of WT, ob/ob, or db/db mice (46). VSMC proliferation was determined using the Cell Titre Aqueous One Solution Proliferation Assay (Promega, Madison, Wis.). Migration to PDGF-BB was assessed in a modified Boyden chamber assay (47).

Entries after “also recorded” stand apart in the source; their conditions may differ.

“Leptin: recombinant leptin; hormone derived from adipose tissue, encoded by the Ob gene”: the VSMC proliferation entry reads like this: (Example 2, high (4500 mg/L) and normal (1250 mg/L) glucose, various leptin concentrations) “potentiated the proliferation of VSMCs in a dose-dependent manner”; (co-incubation of leptin 100 ng/ml with insulin 10 nmol/L) around 80%; (leptin receptor-defective (db/db) VSMC, leptin 1, 10, 100 ng/ml) “not”; (leptin-deficient (ob/ob) VSMC, leptin 1, 10, 100 ng/ml) “induced dose-dependent VSMC proliferation; also recorded: can induce VSMC proliferation; also recorded: increased”; (wild type C57BL/6J VSMC, leptin 1, 10, 100 ng/ml (0.06, 0.6, 6 nM), 72 h, vs vehicle) “increased murine VSMC proliferation in a dose-dependent fashion”; (wild type C57BL/6J VSMC, leptin 1, 10, 100 ng/ml (0.06, 0.6, 6 nM), 72 h, vs vehicle, listed as leptin) “increased”.
